Measurements: article PMC11003925, “Antimicrobial activity and properties of de novo design of short synthetic lipopeptides” (Folia Microbiologica, 2024)
Values after ≈ are worked out from the molar mass of the structure shown. Like-named read-outs stand apart in the source and are kept apart here. Residues, ends and D or L forms follow the SMILES beside them. *: point of attachment. Lithocholoyl = C[C@H](CCC(=O)*)[C@H]1CC[C@H]2[C@@H]3CC[C@@H]4C[C@H](O)CC[C@]4(C)[C@H]3CC[C@]12C; Palmitoyl = CCCCCCCCCCCCCCCC(=O)*

Tests used:
HEK293T = experiment: Cytotoxicity assay (xCELLigence impedance); type: cell-based, human; conditions: 24 h exposure
Protocol: (§1) Experiments were carried out using an xCELLigence RTCA DP Instrument (Roche Diagnostics GmbH, Mannheim, Germany) which was placed into an incubator (37 °C and 5% CO2). Cell proliferation and cytotoxicity experiments were performed using modified 16-well plates (E-plate, Roche Diagnostics GmbH, Mannheim, Germany). Microelectrodes were attached to the bottom of the wells for the impedance-based detection of attachment, spreading, and proliferation of the cells (Stoddart [2011]). This system monitors cellular events in real time without the incorporation of labels by measuring electrical impedance across an interdigitated microelectrode integrated into the bottom of this special tissue culture plate. This impedance measurement improves upon conventional endpoint assays and provides quantitative information about the biological status of the cells, including cell number, adhesion, viability, and morphology. Ninety microliters of cultivation medium was used for the blank sample, and subsequently, 100 µL of HepG2 or HEK293T cell suspension (7 × 10^5 cells/mL) was added and placed into the incubator (37 °C, 95% humidity, 5% CO2). […] Chrysophsin-3 at a concentration of 100 µg/mL was used as a positive control and solvent (deionized water) as a negative control. Subsequent incubation was performed for at least an additional 24 h. The result of the measurement was viability curves. After the measurement, percentages of tissue culture growth inhibition were calculated for all the tested substances, as follows: %inhibition=(1-(ΔϕCIsample)/(ΔϕCIcontrol))·100
(§2) Δ∅CIsample … the difference between the first and last average CI (cell index) values of the tissue culture in the presence of the tested sample.
(§3) Δ∅CIcontrol … the difference between the first and last average CI values of the tissue culture itself.

HepG2 = experiment: Cytotoxicity assay (xCELLigence impedance); type: cell-based, human; conditions: 24 h exposure
Protocol: as §1, §2, §3

Ps. aeruginosa DBM 3081 = type: cell-based, Pseudomonas aeruginosa; conditions: for IC50: 25 h
Protocol: (§4) A Bioscreen C automated microbiology growth curve analysis system (Growth Curves, Piscataway, NJ, USA) was used for the quantitative determination of antimicrobial activity (minimal inhibitory concentration, MIC) of PAL/LCA-peptides. Optical density was measured with a wide bandpass filter (wavelength range 420–580 nm) at regular intervals and temperatures. This assay was performed in a special microtiter plate (10 × 10 wells) that allowed the simultaneous testing of a large number of samples against several microorganisms. The total testing volume was 100 µL, obtained by mixing 10 µL of microbial culture with OD600 equal to 0.1 with growth medium and a solution of the tested compounds. The positive controls were vancomycin and tetracycline for Bacillus subtilis (100 µg/mL) for Gram-positive bacteria, kanamycin, and tetracycline for Acinetobacter baumannii (100 µg/mL) for Gram-negative bacteria, and clotrimazole or amphotericin (100 µg/mL) for fungi. The maximal concentration of tested lipoproteins was 1 mg/mL. A pure growth medium was used as the negative control. The measurement period was 25 h. The lowest concentration with a 100% inhibition effect for 24 h of incubation was chosen as the MIC. The antibacterial activity of each compound was expressed as the minimum inhibitory concentration MIC (MIC is the lowest concentration of the compound needed to inhibit the growth of bacterial cells) and IC50 (IC50 is the concentration of the compound needed to inhibit the growth of bacterial cells by 50%).

C. tropicalis DBM 2166 = type: cell-based, Candida tropicalis; conditions: for IC50: DBM 2166, 25 h
Protocol: as §4

A. baumannii DBM 3183 = experiment: microbe, parasite or virus in culture; type: cell-based, Acinetobacter baumannii; conditions: for IC50: DBM 3183, 25 h
Protocol: as §4

Staph. aureus MRSA1 = type: cell-based, Staphylococcus aureus; conditions: for MIC: 24 h; for IC50: 25 h
Protocol: as §4

Staph. aureus DBM 3002 = type: cell-based, Staphylococcus aureus; conditions: for IC50: 25 h; for MIC: 24 h
Protocol: as §4

E. faecalis DBM 3075 = type: cell-based; conditions: DBM 3075, 25 h
Protocol: as §4

E. coli DBM 3001 = type: cell-based; conditions: for IC50: DBM 3001, 25 h
Protocol: as §4

B. subtilis DBM 3006 = type: cell-based, Bacillus subtilis; conditions: for IC50: DBM 3006, 25 h; for MIC: DBM 3006, 24 h
Protocol: as §4

M. luteus DBM 3053 = type: cell-based, Micrococcus luteus; conditions: for MIC: DBM 3053, 24 h; for IC50: DBM 3053, 25 h
Protocol: as §4

plasmid pGreen 0029 = experiment: DNA binding assay (gel retardation); conditions: for weight ratio lipopeptide:DNA influencing electrophoretic mobility: 50 ng DNA, 1 h room temperature, 1% agarose gel
Protocol: This assay was performed as described by Park et al. ([1998]), with a few modifications. […] The reaction mixture was incubated at room temperature for 1 h. Subsequently, 4 µL of native loading buffer (10% Ficol, 10 mM Tris–HCl (pH 7.5), 50 mM EDTA, 0.25% bromophenol blue) was added. An aliquot was applied to 1% agarose gel electrophoresis in 0.5xTris borate-EDTA buffer. Circular plasmid DNA was isolated from (Luria–Bertani medium with AMPI in final concentration 100 µg/mL) bacterial strain E. coli DH5α / pBluescriptII KS- that had been grown overnight, and linearization was performed overnight by enzymatic reaction using restriction endonuclease EcoRV at 37 °C. The evaluation was performed by visualizing the DNA with the intercalation dye Midori Green Advanced DNA Stain under UV light. Reduced electrophoretic mobility compared to the control is considered to be evidence of peptide binding to DNA.
According to the previous results, we decided to clarify one of the possible molecular interaction mechanisms, the ability of the studied lipopeptides to bind microbial plasmid DNA. Based on the assumption that pore formation is only one of the influencing factors, which arose from previous results, the effect on one of the possible intracellular targets, DNA, was determined. This determination was carried out on isolated plasmid DNA, specifically on two plasmids, pGreen 0029 and pBluescript II KS- in circular and linearized form.

Staph. aureus = experiment: Transmission electron microscopy of treated bacteria; type: cell-based, Staphylococcus aureus; conditions: 1 to 4 h incubation; media with (Mueller–Hinton broth 2) and without nutrients (potassium phosphate buffer)
Protocol: Pictures of damaged bacterial cells were obtained by transmission electron microscopy after 1 to 4 h of incubation. Cells of the Gram-positive bacterial strains were not stained. A JEOL JEM-1010 transmission electron microscope (JEOL, Tokyo, Japan) equipped with a MegaView III CCD camera was used for visualization, and evaluation was performed with the program for image analysis AnalySIS software v. 2.0 (Soft Imaging Systems). The samples were plated on a carbon-coated electron microscopic grid and observed with an accelerating voltage of 80 kV.

[1] = tested on: all the tested microorganisms; experiment: Microtitre dilution screening at 1 mg/mL; type: cell-based; conditions: c = 1 mg/mL, microtitre dilution method
Protocol: as §4

[2] = first value of cell 'MIC / IC50', 100% inhibition for 24 h

Row | Molecule | % inhibition (HEK293T; c 50 µg/mL) | % inhibition (HEK293T; c 100 µg/mL) | % inhibition (HEK293T; c 200 µg/mL) | % inhibition (HepG2; c 50 µg/mL) | % inhibition (HepG2; c 100 µg/mL) | IC50 (Ps. aeruginosa DBM 3081) | IC50 (C. tropicalis DBM 2166) | IC50 (A. baumannii DBM 3183) | MIC (Staph. aureus MRSA1) | IC50 (Staph. aureus MRSA1) | IC50 (Staph. aureus DBM 3002) | IC50 (E. faecalis DBM 3075) | IC50 (E. coli DBM 3001) | IC50 (B. subtilis DBM 3006) | MIC (M. luteus DBM 3053) | IC50 (M. luteus DBM 3053) | growth inhibition / activity in screening [1] | further results
1 | CCCCCCCCCCCCCCCC(=O)N[C@@H](CC(C)C)C(=O)N[C@H](C(=O)N[C@@H](CCCCN)C(=O)NCC(=O)N[C@@H](C)C(=O)N[C@@H](CCCNC(=N)N)C(N)=O)C(C)C [SHP-2.2, PAL-LVKGAR-NH2] (Palmitoyl-LVKGAR-NH2) | 11.1 ± 1.7% | 19.3 ± 2.9% | 28.6 ± 4.3% | 4.3 ± 0.6% | 11.4 ± 1.7% | N / > 100.0 µg/mL | N / > 100.0 µg/mL | N / > 100.0 µg/mL | 14.9 µg/mL (≈ 16.9 µM) | 25.0 µg/mL (≈ 28.4 µM) | N / > 100.0 µg/mL | N / > 100.0 µg/mL | N / > 100.0 µg/mL | N / > 100.0 µg/mL | 7.0 µg/mL (≈ 7.95 µM) | 10.0 µg/mL (≈ 11.4 µM) |  | % inhibition (HepG2; c 200 µg/mL): 18.5 ± 2.8%
2 | CCCCCCCCCCCCCCCC(=O)NCC(=O)N[C@H](C(=O)N[C@@H](CC(C)C)C(=O)N[C@@H](CCCCN)C(=O)N[C@@H](CCCNC(=N)N)C(=O)N[C@@H](C)C(N)=O)C(C)C [SHP-3.2, PAL-GVLKRA-NH2] (Palmitoyl-GVLKRA-NH2) | 4.1 ± 0.6% | 29.6 ± 4.4% | 0.0 ± 0.3% | 17.0 ± 2.6% | 20.7 ± 3.1% | 100.0 µg/mL (≈ 114 µM) | N / > 100.0 µg/mL | N / > 100.0 µg/mL | 6.8 µg/mL (≈ 7.73 µM) | 12.5 µg/mL (≈ 14.2 µM) | 30.0 µg/mL (≈ 34.1 µM) | N / > 100.0 µg/mL | 100.0 µg/mL (≈ 114 µM) | 50.0 µg/mL (≈ 56.8 µM) | 5.8 µg/mL (≈ 6.59 µM) | 10.0 µg/mL (≈ 11.4 µM) |  | % inhibition (HepG2; c 200 µg/mL): 23.2 ± 3.5%; MIC (Ps. aeruginosa DBM 3081; 24 h): 83.6 µg/mL (≈ 95 µM); MIC (Staph. aureus DBM 3002): 8.6 µg/mL (≈ 9.77 µM); influence on electrophoretic mobility of plasmid DNA (plasmid pGreen 0029; circular or linearized forms, tested ratios): did not exhibit any influence; MIC (E. coli DBM 3001; DBM 3001, 24 h): 68.7 µg/mL (≈ 78 µM); MIC (B. subtilis DBM 3006): 41.1 µg/mL (≈ 46.7 µM)
3 | CC(C)C[C@H](NC(=O)[C@@H](NC(=O)CNC(=O)CC[C@@H](C)[C@H]1CC[C@H]2[C@@H]3CC[C@@H]4C[C@H](O)CC[C@]4(C)[C@H]3CC[C@]12C)C(C)C)C(=O)N[C@@H](CCCCN)C(=O)N[C@@H](CCCNC(=N)N)C(=O)N[C@@H](C)C(N)=O [SHP-3.3, LCA-GVLKRA-NH2] (Lithocholoyl-GVLKRA-NH2) | 7.8 ± 1.2% | 28.5 ± 4.3% | 88.2 ± 13.2% | 4.3 ± 0.6% | 35.6 ± 5.3% | N / > 100.0 µg/mL | 30.0 µg/mL (≈ 30 µM) | N / > 100.0 µg/mL | 25.2 µg/mL (≈ 25.2 µM) | 50.0 µg/mL (≈ 50 µM) | 50.0 µg/mL (≈ 50 µM) | N / > 100.0 µg/mL | N / > 100.0 µg/mL | 50.0 µg/mL (≈ 50 µM) | 1.5 µg/mL (≈ 1.5 µM) | 5.0 µg/mL (≈ 5 µM) |  | MIC (C. tropicalis DBM 2166; [2]): 10.0 µg/mL (≈ 10 µM); MIC (Staph. aureus DBM 3002): 28.8 µg/mL (≈ 28.8 µM); weight ratio lipopeptide:DNA influencing electrophoretic mobility (plasmid pGreen 0029; circular plasmid): 1.0; weight ratio lipopeptide:DNA influencing electrophoretic mobility (plasmid pGreen 0029; linearized plasmid): 10.0; morphological effect on bacterial cells (TEM) (Staph. aureus): damaging cellular envelopes; MIC (B. subtilis DBM 3006): 34.3 µg/mL (≈ 34.3 µM)
4 | NC[C@H]1O[C@H](O[C@H]2[C@H](O)[C@@H](O[C@H]3O[C@H](CO)[C@@H](O)[C@H](N)[C@H]3O)[C@H](N)C[C@@H]2N)[C@H](O)[C@@H](O)[C@@H]1O [kanamycin, reference compound] |  |  |  |  |  |  |  |  |  |  |  |  |  |  |  |  |  | MIC (Ps. aeruginosa DBM 3081; [2]): 20 µg/mL (≈ 41.3 µM)
5 | CN(C)[C@@H]1C(O)=C(C(N)=O)C(=O)[C@@]2(O)C(O)=C3C(=O)c4c(O)cccc4[C@@](C)(O)[C@H]3C[C@@H]12 [tetracycline, reference compound] |  |  |  |  |  |  |  |  |  |  |  |  |  |  |  |  |  | MIC (A. baumannii DBM 3183; Acinetobacter baumannii, DBM3183, first value of cell 'MIC / IC50', lowest concentration with 100% inhibition for 24 h, 100 µL, OD 420–580 nm): 10 µg/mL (≈ 22.5 µM)
6 | GVLKRA-NH2 [SHP-3.1] |  |  |  |  |  |  |  |  |  |  |  |  |  |  |  |  | low activity | growth inhibition (B. subtilis DBM 3006; c = 1 mg/mL): One hundred percent
7 | LVKGAR-NH2 [SHP-2.1, primary hexapeptide with C-terminal amidation] |  |  |  |  |  |  |  |  |  |  |  |  |  |  |  |  | low activity | 
8 | LVKRAG-NH2 [SHP-1.1, primary hexapeptide with C-terminal amidation] |  |  |  |  |  |  |  |  |  |  |  |  |  |  |  |  | low activity | growth inhibition (Staph. aureus DBM 3002; c = 1 mg/mL, Staphylococcus aureus, strain not stated): One hundred percent; growth inhibition (M. luteus DBM 3053; c = 1 mg/mL): One hundred percent
